Test system: HCV genotype 1b replicon
Assay: HCV replicon assay, cell ELISA with antibody to replicon-encoded NS3/4A (genotype 1b replicon)
Format: cell-based, hepatitis C virus
Conditions: Hepatitis C virus, 96 h, read-out: 1b IC50(nM), HCV genotype 1b replicon; 96 hours incubation; NS3/4A cell ELISA
Outline: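 Replicon-harbouring cells carrying neomycin phosphotransferase were incubated 96 h with a compound dilution series without G418. Replication was quantified indirectly by a cell ELISA detecting replicon-encoded NS3/4A. IC50 values were calculated relative to DMSO control with a four-parameter fit.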

SMILES | IC50 [nM]
CNC(=O)c1c(-c2ccc(F)cc2)oc2cc(N(CC(C)(C)O)S(C)(=O)=O)c(-c3ccc(OC)c(-c4nc5cc(F)cc(F)c5o4)c3)cc12 [Example 780] | 18.5
CNC(=O)c1c(-c2ccc(F)cc2)oc2cc(N(CC3CC3)S(C)(=O)=O)c(-c3ccc(OC)c(-c4nc5c(F)cc(F)cc5o4)c3)cc12 [Example 705] | 15.6
CNC(=O)c1c(-c2ccc(F)cc2)oc2cc(N(C)S(C)(=O)=O)c(-c3csc(-c4nc5c(F)cccc5o4)c3)cc12 [Example 504] | 1.53
CNC(=O)c1c(-c2ccc(F)cc2)oc2cc(N(CCF)S(C)(=O)=O)c(-c3ccc(OC)c(-c4nc5ncccc5o4)c3)cc12 [Example 870] | 1.3
CNC(=O)c1c(-c2ccc(F)cc2)oc2cc(N(C)S(C)(=O)=O)c(-c3ccc(Cl)c(-c4nc5c(F)cccc5o4)c3)cc12 [Example 865] | 4.7
CNC(=O)c1c(-c2ccc(F)cc2)oc2cc(N(C)S(C)(=O)=O)c(-c3cccc(-c4cc5cc(F)ccc5n4CCO)c3)cc12 [Example 598] | 3.43
CNC(=O)c1c(-c2ccc(F)cc2)oc2cc(N(C)S(C)(=O)=O)c(-c3ccc(OC)c(-c4nc5ccc(-c6cncnc6)cc5o4)c3)cc12 [Example 658, 2-(4-fluorophenyl)-5-(4-methoxy-3-(6-(pyrimidin-5-yl)benzo[d]oxazol-2-yl)phenyl)-N-methyl-6-(N-methylmethylsulfonamido) benzofuran-3-carboxamide] | 8.53
CNC(=O)c1c(-c2ccc(F)cc2)oc2cc(N(CCC(C)(C)F)S(C)(=O)=O)c(-c3ccc(OC)c(-c4nc5c(F)cccc5o4)c3)cc12 [Example 796] | 14
CNC(=O)c1c(-c2ccc(F)cc2)oc2cc(N(C3CC(C#N)C3)S(C)(=O)=O)c(-c3ccc(OC)c(-c4nc5c(F)cccc5o4)c3)cc12 (centres unmarked) [Example 740] | 4.76
CNC(=O)c1c(-c2ccc(F)cc2)oc2cc(N(CCC(C)(C)O)S(C)(=O)=O)c(-c3cc(F)cc(-c4nc5ncccc5o4)c3)cc12 [Example 879] | 2.6
CNC(=O)c1c(-c2ccc(F)cc2)oc2cc(N(C)S(C)(=O)=O)c(-c3cnc(OC)c(-c4nc5c(F)cccc5o4)c3)cc12 [Example 507] | 0.68
CNC(=O)c1c(-c2ccc(F)cc2)oc2cc(N(C)S(C)(=O)=O)c(-c3ccc(F)c(-c4cc5cccnc5[nH]4)c3)cc12 [Example 855] | 1.2
CNC(=O)c1c(-c2ccc(F)cc2)oc2cc(N(CC(C)(C)F)S(C)(=O)=O)c(-c3ccc(OC)c(-c4nc5c(F)cc(F)cc5o4)c3)cc12 [Example 791] | 28.5

Same assay, conditions: Hepatitis C virus, 96 h, read-out: Replicon 1b IC50 (nM), HCV genotype 1b replicon cells, 96 hours incubation, NS3/4A ELISA readout

SMILES | IC50 [nM]
CONC(=O)c1c(-c2ccc(F)cc2)oc2cc(N(CCCc3ccccc3)S(C)(=O)=O)c(-c3ccccc3)cc12 [Example 10, 2-(4-fluorophenyl)-N-methoxy-6-[(methylsulfonyl) (3-phenylpropyl)amino]-5-phenyl-1-benzofuran-3-carboxamide] | 221
CNC(=O)c1c(-c2ccc(F)cc2)oc2cc(N(C)S(C)(=O)=O)c(-c3ccc(OC)c(-c4nc5cc(F)cnc5o4)c3)cc12 [Example 227] | 2.2
CNC(=O)c1c(-c2ccc(F)cc2)oc2cc(N(C)S(C)(=O)=O)c(-c3ccc(C)c(-c4nc5ncccc5o4)c3)cc12 [Example 208] | 1.8
CNC(=O)c1c(-c2ccc(F)cc2)oc2cc(N(C)S(C)(=O)=O)c(-c3cccc(-c4cc5cc(F)ccc5[nH]4)c3)cc12 [Compound 367] | 3.9
CNC(=O)c1c(-c2ccc(F)cc2)oc2cc(N(C)S(C)(=O)=O)c(-c3cccc(-c4cc5ncccc5[nH]4)c3)cc12 [Compound 368] | 1.6
CNC(=O)c1c(-c2ccc(F)cc2)oc2cc(N(C)S(C)(=O)=O)c(-c3cccc(-c4nc5cncnc5o4)c3)cc12 [Example 242] | 4.8
CNC(=O)c1c(-c2ccc(F)cc2)oc2cc(N(C)S(C)(=O)=O)c(-c3cccc(-c4[nH]c5ncccc5c4CO)c3)cc12 [Example 383, 2-(4-fluorophenyl)-5-(3-(3-(hydroxymethyl)-1H-pyrrolo[2,3-b]pyridin-2-yl)phenyl)-N-methyl-6-(N-methylmethylsulfonamido)benzofuran-3-carboxamide] | 2.5
CNC(=O)c1c(-c2ccc(F)cc2)oc2cc(N(C)S(C)(=O)=O)c(-c3cccc(-c4cc5ccc(OC)cc5[nH]4)c3)cc12 [Example 356] | 5.9
CNC(=O)c1c(-c2ccc(F)cc2)oc2cc(N(C)S(C)(=O)=O)c(-c3cccc(-c4nc5ncc(Cl)cc5s4)c3)cc12 [Example 261] | 2
CNC(=O)c1c(-c2ccc(F)cc2)oc2cc(N(CCCCOC(C)=O)S(C)(=O)=O)c(-c3ccccc3)cc12 [Example 30, 4-{[2-(4-fluorophenyl)-3-(methylcarbamoyl)-5-phenyl-1-benzofuran-6-yl] (methylsulfonyl)amino}butyl acetate] | 40
CNC(=O)c1c(-c2ccc(F)cc2)oc2cc(N(C3CCCC3)S(C)(=O)=O)c(-c3ccccc3)cc12 [Example 22, 6-[cyclopentyl (methylsulfonyl)amino]-2-(4-fluorophenyl)-N-methyl-5-phenyl-1-benzofuran-3-carboxamide] | 55
CNC(=O)c1c(-c2ccc(F)cc2)oc2cc(N(C)S(C)(=O)=O)c(-c3ccc(Cl)c(-c4nc5ccccc5o4)c3)cc12 [Example 177] | 7.4
CNC(=O)c1c(-c2ccc(F)cc2)oc2cc(N(C)S(C)(=O)=O)c(-c3cc(OC)cc(-c4nc5cncnc5[nH]4)c3)cc12 [Example 345] | 2.1
CNC(=O)c1c(-c2ccc(F)cc2)oc2cc(N(C)S(C)(=O)=O)c(-c3ccc(F)c(-c4nc5cccnc5o4)c3)cc12 [Example 221] | 1.7
CNC(=O)c1c(-c2ccc(F)cc2)oc2cc(N(C)S(C)(=O)=O)c(-c3ccc(F)c(-c4nc5cc(C)ccc5[nH]4)c3)cc12 [Example 302] | 3.1
CNC(=O)c1c(-c2ccc(F)cc2)oc2cc(N(C)S(C)(=O)=O)c(-c3cc(F)cc(-c4nc5cnccc5o4)c3)cc12 [Example 212] | 2.6
CNC(=O)c1c(-c2ccc(F)cc2)oc2cc(N(CCCC(C)C)S(C)(=O)=O)c(-c3ccccc3)cc12 [Example 25, 2-(4-fluorophenyl)-N-methyl-6-[(4-methylpentyl) (methylsulfonyl)amino]-5-phenyl-1-benzofuran-3-carboxamide] | 166

SMILES | IC50 [nM]
CNC(=O)c1c(-c2ccc(F)cc2)oc2cc(N(C)S(C)(=O)=O)c(-c3cc(F)cc(-c4nc5cccnc5[nH]4)c3)cc12 [Example 305] | 1.1
CNC(=O)c1c(-c2ccc(F)cc2)oc2cc(N(C)S(C)(=O)=O)c(-c3ccc(CNS(=O)(=O)c4ccccc4)cc3)cc12 [Example 105, 2-(4-fluorophenyl)-N-methyl-6-[methyl (methylsulfonyl)amino]-5-(4-{[(phenylsulfonyl)amino]methyl}phenyl)-1-benzofuran-3-carboxamide] | 57
CNC(=O)c1c(-c2ccc(F)cc2)oc2cc(N(C)S(C)(=O)=O)c(-c3ccc(Cl)c(-c4nc5cncnc5[nH]4)c3)cc12 [Example 347] | 8.1
CNC(=O)c1c(-c2ccc(F)cc2)oc2cc(N(C)S(C)(=O)=O)c(-c3ccc(F)c(-c4nc5ccccc5s4)c3F)cc12 [Example 296] | 64.1
CNC(=O)c1c(-c2ccc(F)cc2)oc2cc(N(C)S(C)(=O)=O)c(-c3cccc(-c4cc5ccc(OCc6ccccc6)cc5[nH]4)c3)cc12 [Example 360] | 30.5
CNC(=O)c1c(-c2ccc(F)cc2)oc2cc(N(C)S(C)(=O)=O)c(-c3cc(-c4nc5cccnc5o4)ccc3F)cc12 [Example 222] | 3.5
CNC(=O)c1c(-c2ccc(F)cc2)oc2cc(N(C)S(C)(=O)=O)c(-c3cccc(-c4nc5ccc(CN)cc5s4)c3)cc12 [Example 297, 5-(3-(6-(aminomethyl)benzo[d]thiazol-2-yl)phenyl)-2-(4-fluorophenyl)-N-methyl-6-(N-methylmethylsulfonamido)benzofuran-3-carboxamide] | 20.5
CNC(=O)c1c(-c2ccc(F)cc2)oc2cc(N(CCCO)S(C)(=O)=O)c(-c3cccc(-c4nc5ncccc5o4)c3)cc12 [Example 384, 2-(4-fluorophenyl)-6-(N-(3-hydroxypropyl)methylsulfonamido)-N-methyl-5-(3-(oxazolo[4,5-b]pyridin-2-yl)phenyl)benzofuran-3-carboxamide] | 0.9
CNC(=O)c1c(-c2ccc(F)cc2)oc2cc(N(C(C)c3ccccc3)S(C)(=O)=O)c(-c3ccccc3)cc12 (centres unmarked) [Example 4, 2-(4-fluorophenyl)-N-methyl-6-[(methylsulfonyl) (1-phenylethyl)amino]-5-phenyl-1-benzofuran-3-carboxamide] | 703
CNC(=O)c1c(-c2ccc(F)cc2)oc2cc(N(C)S(C)(=O)=O)c(-c3ccc(OC)c(-c4nc5ncc(Cl)cc5o4)c3)cc12 [Example 239] | 2.6
CNC(=O)c1c(-c2ccc(F)cc2)oc2cc(N(C)S(C)(=O)=O)c(-c3ccc(OC)c(-c4nc5ccc(F)cc5o4)c3)cc12 [Example 185] | 2.2
CNC(=O)c1c(-c2ccc(F)cc2)oc2cc(N(C)S(C)(=O)=O)c(-c3cc(F)cc(-c4nc5cccnc5o4)c3)cc12 [Example 218] | 1.8
CNC(=O)c1c(-c2ccc(F)cc2)oc2cc(N(C)S(C)(=O)=O)c(-c3cccc(-c4nc5ccc(=O)[nH]c5[nH]4)c3)cc12 [Example 328] | 13.5
CNC(=O)c1c(-c2ccc(F)cc2)oc2cc(N(C)S(C)(=O)=O)c(-c3cc(F)cc(-c4nc5c(C)ccnc5[nH]4)c3)cc12 [Example 307] | 2.4
CNC(=O)c1c(-c2ccc(F)cc2)oc2cc(N(C)S(C)(=O)=O)c(-c3cc(OC)cc(-c4nc5c(C)ccnc5[nH]4)c3)cc12 [Example 316] | 2.8
CNC(=O)c1c(-c2ccc(F)cc2)oc2cc(N(C)S(C)(=O)=O)c(-c3cccc(-c4nc5nccnc5[nH]4)c3)cc12 [Example 336] | 2.7
CNC(=O)c1c(-c2ccc(F)cc2)oc2cc(N(C)S(C)(=O)=O)c(-c3ccc(OC)c(-c4nc5ccc(C)cc5o4)c3)cc12 [Example 191] | 4.1
